Here are results for 19 compounds from patent US20250230147A1, “LACTAMS AS CBL-B INHIBITORS” (Genentech, Inc., priority 2021, published 2025).

Counter-ions that a name gives are not always drawn.

In assay [1] the target is Cbl-b (Homo sapiens (Human), UniProt Q13191). Briefly: Cbl-b LCK Ub TR-FRET assay (Cbl-b Lck HTRF). The class given is biochemical. The method, boiled down:
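Biotin-Cbl-b preincubated with compound (10-point 3-fold series) 60 min, then His-LCK with 1 mM ATP (2× mixture) added for 90 min at room temperature. Ubiquitination detected by TR-FRET using HA-ubiquitin/UBE2D2 adduct, anti-HA-D2 and streptavidin-Eu; IC50 normalised to no-LCK and DMSO controls.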
(In general: Time-resolved FRET reads energy transfer from a long-lived donor to a nearby acceptor.)

Assay [2] has as its target c-Cbl (Homo sapiens (Human), UniProt P22681). Description: C-Cbl LCK Ub TR-FRET assay (c-cbl Lck HTRF). To be noted: for (fold-selectivity): C-cbl Lck HTRF IC50 relative to Cbl-b Lck HTRF IC50. The format is biochemical. In short, it runs like this: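 After the ubiquitination reaction, detection mixture was added and plates incubated 20 min at room temperature before reading. IC50 values were calculated with wells lacking LCK as the low control and DMSO as the high control.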

Cbl-b, sequence (Q13191 40-426): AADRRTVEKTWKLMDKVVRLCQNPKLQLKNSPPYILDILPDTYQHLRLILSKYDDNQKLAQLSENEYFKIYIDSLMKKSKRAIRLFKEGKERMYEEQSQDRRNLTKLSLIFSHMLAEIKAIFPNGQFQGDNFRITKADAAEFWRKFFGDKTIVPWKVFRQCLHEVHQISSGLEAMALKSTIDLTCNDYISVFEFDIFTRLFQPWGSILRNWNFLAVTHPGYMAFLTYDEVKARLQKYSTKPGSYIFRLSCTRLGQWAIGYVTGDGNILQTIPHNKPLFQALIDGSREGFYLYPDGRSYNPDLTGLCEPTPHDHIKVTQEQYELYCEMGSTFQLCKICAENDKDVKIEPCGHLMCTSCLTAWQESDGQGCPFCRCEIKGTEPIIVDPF
c-Cbl, sequence (P22681 47-435): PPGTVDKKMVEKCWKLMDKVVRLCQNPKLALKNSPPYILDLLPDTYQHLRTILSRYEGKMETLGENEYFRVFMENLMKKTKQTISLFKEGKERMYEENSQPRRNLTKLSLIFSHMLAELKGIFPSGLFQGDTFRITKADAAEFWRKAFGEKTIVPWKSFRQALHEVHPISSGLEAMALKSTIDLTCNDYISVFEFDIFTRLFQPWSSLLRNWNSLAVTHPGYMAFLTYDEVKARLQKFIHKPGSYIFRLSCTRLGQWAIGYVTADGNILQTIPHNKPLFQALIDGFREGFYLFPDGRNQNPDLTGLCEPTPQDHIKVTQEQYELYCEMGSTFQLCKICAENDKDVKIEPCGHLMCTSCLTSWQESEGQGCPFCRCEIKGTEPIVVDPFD

For orientation: IC50 means the concentration that gives 50% inhibition. As for `Cn1cnnc1[C@H](F)C1(c2cccc(N3Cc4c(cc(CNCCCF)cc4C(F)(F)F)C3=O)c2)CC(F)(F)C1` [Compound 447, (R)-2-(3-(3,3-difluoro-1-(fluoro(4-methyl-4H-1,2,4-triazol-3-yl)methyl)cyclobutyl)phenyl)-6-(((3-fluoropropyl)amino)methyl)-4-(trifluoromethyl)isoindolin-1-one], half-maximal inhibition in assay [1] (IC50) required 16 nM. Moreover, in assay [2], the midpoint of inhibition, the IC50, lay at 20 nM and the “(fold-selectivity)” value is “(1.2x)”.
For `CCOc1cc(C2(Cc3nncn3C)COC2)cc(N2Cc3c(cc(CNC4(C)CCC4)cc3C(F)(F)F)C2=O)n1` [Compound 304, 2-(6-ethoxy-4-(3-((4-methyl-4H-1,2,4-triazol-3-yl)methyl)oxetan-3-yl)pyridin-2-yl)-6-(((1-methylcyclobutyl)amino)methyl)-4-(trifluoromethyl)isoindolin-1-one], in assay [1], the IC50 worked out at 11 nM. In addition, in assay [2], the IC50 is 7.9 nM and the “(fold-selectivity)” value was “(0.73x)”.
For the compound `CC(C)[C@@H]1CN(Cc2cc3c(c(C(F)(F)F)c2)CN(c2cccc(C4([C@@H](F)c5nncn5C)COC4)c2)C3=O)CCN1C` [Compound 218, 2-(3-(3-((R)-fluoro(4-methyl-4H-1,2,4-triazol-3-yl)methyl)oxetan-3-yl)phenyl)-6-(((R)-3-isopropyl-4-methylpiperazin-1-yl)methyl)-4-(trifluoromethyl)isoindolin-1-one], in assay [1], half-maximal inhibition (IC50) required 22 nM. Also, in assay [2], the IC50 was determined as 29 nM and the “(fold-selectivity)” value is on record as 1.3x.
In the same order, the values of `Cc1cnnn1CC1(c2cccc(N3Cc4c(cc(CN5CCN(C)C[C@@H]5C(C)C)cc4C(F)(F)F)C3=O)c2)COC1` [Compound 258, (S)-6-((2-isopropyl-4-methylpiperazin-1-yl)methyl)-2-(3-(3-((5-methyl-1H-1,2,3-triazol-1-yl)methyl)oxetan-3-yl)phenyl)-4-(trifluoromethyl)isoindolin-1-one] are 22 nM, 31 nM and “(1.4x)”.
In the same order, the values of `C#Cc1cccc2c1CN(c1cccc(C3([C@@H](F)c4nncn4C)COC3)c1)C2=O` [Compound 211, (R)-4-ethynyl-2-(3-(3-(fluoro(4-methyl-4H-1,2,4-triazol-3-yl)methyl)oxetan-3-yl)phenyl)isoindolin-1-one] are 940 nM, 1600 nM and 1.7x.
As for `CC(C)NCc1cc2c(c(C(F)(F)F)c1)CN(c1cccc(C3([C@@H](F)c4nncn4C)COC3)c1)C2=O` [Compound 226, (R)-2-(3-(3-(fluoro(4-methyl-4H-1,2,4-triazol-3-yl)methyl)oxetan-3-yl)phenyl)-6-((isopropylamino)methyl)-4-(trifluoromethyl)isoindolin-1-one formate], the IC50 in assay [1] was 29 nM; in assay [2] it was 33 nM.
`Cn1cnnc1CC1(c2cccc(N3Cc4c(cc(CNC56CC(C5)C6)cc4C(F)(F)F)C3=O)c2)CC(F)(F)C1` [Compound 356, 6-((bicyclo[1.1.1]pentan-1-ylamino)methyl)-2-(3-(3,3-difluoro-1-((4-methyl-4H-1,2,4-triazol-3-yl)methyl)cyclobutyl)phenyl)-4-(trifluoromethyl)isoindolin-1-one] yielded an IC50 in assay [1] of 12 nM. Besides, in assay [2], the IC50 stood at 10 nM and the “(fold-selectivity)” value was “(0.81x)”.
For `CCNc1cc(N2Cc3c(cc(CNC4(C)CCC4)cc3C(F)(F)F)C2=O)cc(C2(Cc3nncn3C)COC2)c1` [Compound 474, 2-(3-(ethylamino)-5-(3-((4-methyl-4H-1,2,4-triazol-3-yl)methyl)oxetan-3-yl)phenyl)-6-(((1-methylcyclobutyl)amino)methyl)-4-(trifluoromethyl)isoindolin-1-one] the same measures were 11 nM, 8.6 nM and “(0.79x)”.
For the compound `Cn1cnnc1CC1(c2cc(Cc3ccccc3)nc(N3Cc4c(cc(CNC5(C)CCC5)cc4C(F)(F)F)C3=O)c2)CCC1` [Compound 241, 2-(6-benzyl-4-(1-((4-methyl-4H-1,2,4-triazol-3-yl)methyl)cyclo-butyl)pyridin-2-yl)-6-(((1-methylcyclobutyl)amino)methyl)-4-(trifluoromethyl)isoindolin-1-one], the IC50 in assay [1] amounted to 21 nM. Also, in assay [2], half-maximal inhibition (IC50) was put at 16 nM and the “(fold-selectivity)” value is “(0.77x)”.
For the compound `Cn1cnnc1C(F)(F)C1(c2cccc(N3Cc4c(cc(CN5CC(C)(O)C5)cc4C(F)(F)F)C3=O)c2)CC(F)(F)C1` [Compound 383, 2-(3-(1-(difluoro(4-methyl-4H-1,2,4-triazol-3-yl)methyl)-3,3-difluorocyclobutyl)phenyl)-6-((3-hydroxy-3-methylazetidin-1-yl)methyl)-4-(trifluoromethyl)isoindolin-1-one], half-maximal inhibition in assay [1] (IC50) was put at 490 nM. For the same compound, in assay [2], half-maximal inhibition (IC50) required 380 nM and the “(fold-selectivity)” value is “(0.77x)”.
For `CC[C@H]1CN(Cc2cc3c(c(C(F)(F)F)c2)CN(c2cccc(C4(Cc5nncn5C)CC(F)(F)C4)c2)C3=O)CCN1` [Compound 427, (S)-2-(3-(3,3-difluoro-1-((4-methyl-4H-1,2,4-triazol-3-yl)methyl)cyclobutyl)phenyl)-6-((3-ethylpiperazin-1-yl)methyl)-4-(trifluoromethyl)isoindolin-1-one] the same measures were 21 nM, 16 nM and “(0.76x)”.
In the same order, the values of `Cn1cnnc1[C@@H](F)C1(c2cccc(N3Cc4c(cc(CN)cc4C(F)(F)F)C3=O)c2)CCC1` [Compound 387, (S)-6-(aminomethyl)-2-(3-(1-(fluoro(4-methyl-4H-1,2,4-triazol-3-yl)methyl)cyclobutyl)phenyl)-4-(trifluoromethyl)isoindolin-1-one] are 58 nM, 53 nM and “(0.91x)”.
In assay [1], `CC(C)[C@H]1CN(C)CCN1Cc1cc2c(c(C(F)(F)F)c1)CN(c1cc(C3(Cc4nncn4C)CCC3)cc(NC(=O)CCl)n1)C2=O` [Compound 333, (S)-2-chloro-N-(6-(6-((2-isopropyl-4-methylpiperazin-1-yl)methyl)-1-oxo-4-(trifluoromethyl)isoindolin-2-yl)-4-(1-((4-methyl-4H-1,2,4-triazol-3-yl)methyl)cyclobutyl)pyridin-2-yl)acetamide] returned an IC50 of 52 nM. Moreover, in assay [2], half-maximal inhibition (IC50) was put at 53 nM and the “(fold-selectivity)” value is recorded as “(1.0x)”.
For `Cn1cnnc1CC1(c2cccc(N3Cc4c(cc(CN5CCC6(CC6)C5)cc4C(F)(F)F)C3=O)c2)CC(F)(F)C1` [Compound 106, 6((5-azaspiro[2.4]heptan-5-yl)methyl)-2-(3-(3,3-difluoro-1-((4-methyl-4H-1,2,4-triazol-3-yl)methyl)cyclobutyl)phenyl)-4-(trifluoromethyl)isoindolin-1-one] the same measures were 18 nM, 15 nM and 0.81x.
On to `Cn1cnnc1[C@H](F)C1(c2cccc(N3Cc4c(cc(CNC5(C)CCC5)cc4C(F)(F)F)C3=O)c2)CC(F)(F)C1` [Compound 464, (R)-2-(3-(3,3-difluoro-1-(fluoro(4-methyl-4H-1,2,4-triazol-3-yl)methyl)cyclobutyl)phenyl)-6-(((1-methylcyclobutyl)amino)methyl)-4-(trifluoromethyl)isoindolin-1-one], for which the IC50 in assay [1] amounted to 12 nM. Moreover, in assay [2], the IC50 was found to be 12 nM and the “(fold-selectivity)” value is recorded as “(1.0x)”.
Regarding `Cn1cnnc1CC(F)c1cccc(N2Cc3c(cccc3C(F)(F)F)C2=O)c1` (racemic) [Compound 14, 2-[3-[1-fluoro-2-(4-methyl-4H-1,2,4-triazol-3-yl)ethyl]phenyl]-4-(trifluoromethyl)isoindolin-1-one], the IC50 in assay [1] was 10000 nM. Besides, in assay [2], the IC50 stood at 20000 nM and the “(fold-selectivity)” value amounted to 2.0x.
As to `CC(C)[C@H]1CN(C)CCN1Cc1cc2c(c(C(F)(F)F)c1)CN(c1cc(C3([C@H](F)c4nncn4C)CCC3)cc(NCCO)n1)C2=O` [Compound 234, 2-(4-(1-((S)-fluoro(4-methyl-4H-1,2,4-triazol-3-yl)methyl)cyclobutyl)-6-((2-hydroxyethyl)amino)pyridin-2-yl)-6-(((S)-2-isopropyl-4-methylpiperazin-1-yl)methyl)-4-(trifluoromethyl)isoindolin-1-one], the IC50 in assay [1] was 7.2 nM; in assay [2], 8.5 nM. For the same compound, in assay [2], the “(fold-selectivity)” value is listed as “(1.2x)”.
In the case of `Cn1cnnc1[C@H](F)C1(c2cccc(N3Cc4c(cc(CN5CC(C)(CO)C5)cc4C(F)(F)F)C3=O)c2)CC1` [Compound 126, (R)-2-(3-(1-(fluoro(4-methyl-4H-1,2,4-triazol-3-yl)methyl)cyclopropyl)phenyl)-6((3-(hydroxymethyl)-3-methylazetidin-1-yl)methyl)-4-(trifluoromethyl)isoindolin-1-one], 64 nM corresponded to half-maximal inhibition in assay [1] (IC50). In addition, in assay [2], the IC50 stood at 93 nM and the “(fold-selectivity)” value came out at 1.5x.
For the compound `CN(C)C(=O)CNc1cc(C2(Cc3nncn3C)CCC2)cc(N2Cc3c(cc(CNC4(C)CCC4)cc3C(F)(F)F)C2=O)n1` [Compound 311, N,N-dimethyl-2-((4-(1-((4-methyl-4H-1,2,4-triazol-3-yl)methyl)cyclobutyl)-6-(6-(((1-methylcyclobutyl)amino)methyl)-1-oxo-4-(trifluoromethyl)isoindolin-2-yl)pyridin-2-yl)amino)acetamide formate], the IC50 amounted to 110 nM in assay [1] and 140 nM in assay [2].
